# Read-outs that look alike come from different tables or passages of the source. Marks after values point to notes of the source that are not given here. Square brackets hold non-standard residues; d marks the D form. Peptide text beside a SMILES is read from it.
# System: influenza virus A/Puerto Rico/8/34 (H1N1)
# Type: in vivo, Balb/c mice
# [1] = Group 4: inhalation of 1% solution 14 min twice a day, 0.36 mg/kg
# [2] = Group 4: inhalation of 1% solution 14 min twice a day, 0.36 mg/kg, 30 animals
# [3] = Group 5: inhalation of 3% solution 45 min twice a day, 1.74 mg/kg
# [4] = Group 5: inhalation of 3% solution 45 min twice a day, 1.74 mg/kg, 30 animals
# [5] = Group 6: inhalation of 5% solution 55 min twice a day, 3.54 mg/kg
# [6] = Group 6: inhalation of 5% solution 55 min twice a day, 3.54 mg/kg, 30 animals
# [7] = Group 8: inhalation of 3% solution 45 min twice a day, prophylactic only
# [8] = Group 8: inhalation of 3% solution 45 min twice a day, prophylactic only (days 3, 2, 1 and 1 hour before challenge), 30 animals
# [9] = Group 9: nasally + pharyngeal spray 0.5 mg/kg, prophylactic only
# [10] = Group 9: nasally + pharyngeal spray 0.5 mg/kg, prophylactic only, 30 animals
smiles,measurement,setting,value
"CC(C)C[C@H](NC(=O)[C@H](Cc1ccccc1)NC(=O)CNC(=O)[C@@H](C)NC(=O)[C@@H](N)Cc1ccc(O)cc1)C(=O)N[C@@H](CCCNC(=N)N)C(=O)O [Dalargin, tyrosyl-D-alanyl-glycyl-phenylalanyl-leucyl-arginine diacetate] (H-Y[dA]GFLR-OH)",Protective effect on lung tissue and lung function compared with comparators,Dalargin inhalation,superior to that of Tamiflu and Kagocel
same,"Mortality, %",[1],10.00%
same,"Protective index, %",[1],88.46%
same,Mortality by day 9,[2],2
same,Mortality by day 11,[2],1
same,Residue,[2],27*
same,"Mortality, %",[3],6.67%
same,"Protective index, %",[3],92.30%
same,Mortality by day 8,[4],1
same,Mortality by day 10,[4],1
same,Residue,[4],28*
same,"Mortality, %",[5],6.67%
same,"Protective index, %",[5],92.30%
same,Mortality by day 7,[6],1
same,Mortality by day 10,[6],1
same,Residue,[6],28*
same,"Mortality, %",[7],40.00%
same,"Protective index, %",[7],53.85%
same,Mortality by day 5,[8],1
same,Mortality by day 6,[8],3
same,Mortality by day 7,[8],2
same,Mortality by day 8,[8],3
same,Mortality by day 9,[8],3
same,Residue,"Group 8: inhalation of 3% solution 45 min twice a day, prophylactic only, 30 animals",18
same,"Mortality, %",[9],50.00%
same,"Protective index, %",[9],42.31%
same,Mortality by day 6,[10],4
same,Mortality by day 7,[10],4
same,Mortality by day 8,[10],4
same,Mortality by day 9,[10],2
same,Mortality by day 10,[10],1
same,Residue,[10],15
same,"Histological features of lung tissue, day 3 after challenge","oedema, neutrophilic infiltration, collapsed alveolae relative to control",far less pronounced
same,Efficacy attributed exclusively to the prophylactic protective effect,"preventive administration, without the therapeutic component",50%
same,"Histological features of lung tissue, day 12",surviving animals,One half of the animals receiving Dalargin exhibited no signs of pathology
